# Measured values as given in patent publication US11331299B2, “Medicinal use of serrulatane diterpenes” (The University of Sydney, priority 2016, dated 2022).
# Where two headings read alike, the source gives them in different places.
# Key:
# TRIM 33 (h) PHD domain = target: T1, TRIM 33 (h) PHD domain (Homo sapiens, UniProt Q9UPN9); assay: Epigenetic binding assay, PHD domain; settings: for inhibition at 10 µM: read-out: % Inhibition of Control Specific Binding
# T1 construct: Eurofins CEREP (France), contract laboratory
# T1 sequence (Q9UPN9 887-934 limits assumed): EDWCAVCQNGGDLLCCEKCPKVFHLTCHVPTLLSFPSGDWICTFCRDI
# SETD2(h) = SETD2(h) (Homo sapiens, UniProt Q9BYW2); assay: Epigenetic enzyme assay, Methyltransferases (MTs); assay type: biochemical; settings: for inhibition at 10 µM: read-out: % Inhibition of Control Values
# [1] = target: T2, IKK alpha(h) (substrate histone H3 full length) (Homo sapiens, UniProt O15111); assay: Epigenetic enzyme assay, Kinases; assay type: biochemical; settings: read-out: % Inhibition of Control Values
# T2 sequence (O15111 1-745): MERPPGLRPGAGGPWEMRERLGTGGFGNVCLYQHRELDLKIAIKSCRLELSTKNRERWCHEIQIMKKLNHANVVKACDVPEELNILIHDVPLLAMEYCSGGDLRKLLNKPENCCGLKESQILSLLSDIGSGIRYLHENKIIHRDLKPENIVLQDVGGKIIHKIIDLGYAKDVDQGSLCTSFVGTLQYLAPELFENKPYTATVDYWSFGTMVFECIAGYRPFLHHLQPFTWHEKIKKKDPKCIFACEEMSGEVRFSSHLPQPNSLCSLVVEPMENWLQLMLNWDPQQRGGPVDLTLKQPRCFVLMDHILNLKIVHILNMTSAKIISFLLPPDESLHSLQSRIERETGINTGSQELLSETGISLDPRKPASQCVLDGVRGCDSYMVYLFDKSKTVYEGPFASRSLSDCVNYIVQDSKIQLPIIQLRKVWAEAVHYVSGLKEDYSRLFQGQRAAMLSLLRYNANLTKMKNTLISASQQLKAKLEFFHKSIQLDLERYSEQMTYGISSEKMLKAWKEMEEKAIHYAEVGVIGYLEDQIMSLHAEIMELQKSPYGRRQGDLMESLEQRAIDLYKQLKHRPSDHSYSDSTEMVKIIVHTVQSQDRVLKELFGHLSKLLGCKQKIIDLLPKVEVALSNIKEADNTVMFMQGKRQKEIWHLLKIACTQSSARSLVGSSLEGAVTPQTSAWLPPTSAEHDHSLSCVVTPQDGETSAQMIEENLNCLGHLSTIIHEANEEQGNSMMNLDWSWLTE
# USP 14 (h) = USP 14 (h) (Homo sapiens, UniProt P54578); assay: Epigenetic enzyme assay, Ubiquitin modifying enzymes; assay type: biochemical; settings: 10 μM; read-out: % Inhibition of Control Values
# TAF1(1) (h) bromodomain = target: T3, TAF1(1) (h) bromodomain (Homo sapiens, UniProt P21675); assay: Epigenetic binding assay, Bromodomain; settings: 10 μM; read-out: % Inhibition of Control Specific Binding
# T3 construct: Bromodomain
# T3 sequence (P21675 1397-1505 limits assumed): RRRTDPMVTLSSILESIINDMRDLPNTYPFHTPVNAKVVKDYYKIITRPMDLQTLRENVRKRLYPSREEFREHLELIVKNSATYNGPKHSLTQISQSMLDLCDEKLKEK
# KG-1 leukemia cell line = assay: OncoPanel cell proliferation assay (10-day); assay type: cell-based; settings: Homo sapiens; for EC50: read-out: Cell Count EC50; for IC50: read-out: Cell Count IC50
# ATAD2A (h) bromodomain = target: T4, ATAD2A (h) bromodomain (Homo sapiens, UniProt Q6PL18); assay: Epigenetic binding assay, Bromodomain; settings: for inhibition at 10 µM: read-out: % Inhibition of Control Specific Binding
# T4 construct: Bromodomain
# T4 sequence (Q6PL18 980-1092 limits assumed): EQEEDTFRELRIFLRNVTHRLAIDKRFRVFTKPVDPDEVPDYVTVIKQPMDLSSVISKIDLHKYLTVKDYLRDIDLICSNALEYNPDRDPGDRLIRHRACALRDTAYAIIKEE
# [2] = target: T5, Haspin (h) (substrate histone H3 full length) (Homo sapiens, UniProt Q8TF76); assay: Epigenetic enzyme assay, Kinases; assay type: biochemical; settings: read-out: % Inhibition of Control Values
# T5 sequence (Q8TF76 1-798): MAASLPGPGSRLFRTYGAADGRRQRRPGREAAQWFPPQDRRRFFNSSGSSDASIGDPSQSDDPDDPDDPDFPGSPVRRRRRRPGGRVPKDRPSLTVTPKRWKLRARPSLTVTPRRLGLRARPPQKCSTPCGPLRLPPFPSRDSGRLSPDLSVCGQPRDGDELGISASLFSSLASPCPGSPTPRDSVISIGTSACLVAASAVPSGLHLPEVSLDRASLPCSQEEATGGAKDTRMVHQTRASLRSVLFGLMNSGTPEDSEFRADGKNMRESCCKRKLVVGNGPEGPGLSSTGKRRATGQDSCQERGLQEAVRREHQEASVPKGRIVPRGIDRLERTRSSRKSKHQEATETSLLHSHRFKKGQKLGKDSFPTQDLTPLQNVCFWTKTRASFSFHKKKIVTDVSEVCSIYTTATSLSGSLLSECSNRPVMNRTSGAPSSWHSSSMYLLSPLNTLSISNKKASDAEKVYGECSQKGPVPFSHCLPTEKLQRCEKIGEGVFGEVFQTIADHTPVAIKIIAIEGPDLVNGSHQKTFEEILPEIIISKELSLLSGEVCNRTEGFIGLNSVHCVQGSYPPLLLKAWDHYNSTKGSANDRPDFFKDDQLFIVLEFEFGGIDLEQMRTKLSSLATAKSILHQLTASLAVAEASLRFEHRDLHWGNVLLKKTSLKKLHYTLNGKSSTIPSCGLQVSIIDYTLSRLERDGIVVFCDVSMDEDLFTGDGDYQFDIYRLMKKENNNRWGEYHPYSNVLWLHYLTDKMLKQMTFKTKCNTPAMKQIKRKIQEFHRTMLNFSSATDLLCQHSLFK
# CBX2 (h) chromodomain = target: T6, CBX2 (h) chromodomain (Homo sapiens, UniProt Q14781); assay: Epigenetic binding assay, Chromodomain; settings: read-out: % Inhibition of Control Specific Binding
# T6 construct: Recognition and specificity determinants of the human cbx chromodomains; Eurofins CEREP (France), contract laboratory
# T6 sequence (Q14781 12-70 limits assumed): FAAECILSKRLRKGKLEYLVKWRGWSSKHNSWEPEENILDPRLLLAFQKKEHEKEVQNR
# [3] = target: T7, Catechol O-methyltransferase (h) (Homo sapiens, UniProt P21964); assay: Epigenetic enzyme assay, Small molecule methyltransferases; assay type: biochemical; settings: read-out: % Inhibition of Control Values
# T7 sequence (P21964 1-271): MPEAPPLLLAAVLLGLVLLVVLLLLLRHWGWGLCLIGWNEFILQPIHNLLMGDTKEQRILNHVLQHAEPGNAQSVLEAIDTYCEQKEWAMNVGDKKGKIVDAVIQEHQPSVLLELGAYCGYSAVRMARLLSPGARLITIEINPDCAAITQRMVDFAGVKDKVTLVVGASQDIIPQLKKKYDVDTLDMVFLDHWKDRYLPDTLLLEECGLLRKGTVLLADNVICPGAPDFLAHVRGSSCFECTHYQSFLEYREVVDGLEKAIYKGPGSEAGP
# H3K27 ac = assay: Cell-based detection methyl modifications; settings: read-out: % Inhibition of Control Values
# [4] = KG-1, Leukemia, read-out: Cell Count GI50
# Sequence of SETD2(h) (Q9BYW2 whole entry): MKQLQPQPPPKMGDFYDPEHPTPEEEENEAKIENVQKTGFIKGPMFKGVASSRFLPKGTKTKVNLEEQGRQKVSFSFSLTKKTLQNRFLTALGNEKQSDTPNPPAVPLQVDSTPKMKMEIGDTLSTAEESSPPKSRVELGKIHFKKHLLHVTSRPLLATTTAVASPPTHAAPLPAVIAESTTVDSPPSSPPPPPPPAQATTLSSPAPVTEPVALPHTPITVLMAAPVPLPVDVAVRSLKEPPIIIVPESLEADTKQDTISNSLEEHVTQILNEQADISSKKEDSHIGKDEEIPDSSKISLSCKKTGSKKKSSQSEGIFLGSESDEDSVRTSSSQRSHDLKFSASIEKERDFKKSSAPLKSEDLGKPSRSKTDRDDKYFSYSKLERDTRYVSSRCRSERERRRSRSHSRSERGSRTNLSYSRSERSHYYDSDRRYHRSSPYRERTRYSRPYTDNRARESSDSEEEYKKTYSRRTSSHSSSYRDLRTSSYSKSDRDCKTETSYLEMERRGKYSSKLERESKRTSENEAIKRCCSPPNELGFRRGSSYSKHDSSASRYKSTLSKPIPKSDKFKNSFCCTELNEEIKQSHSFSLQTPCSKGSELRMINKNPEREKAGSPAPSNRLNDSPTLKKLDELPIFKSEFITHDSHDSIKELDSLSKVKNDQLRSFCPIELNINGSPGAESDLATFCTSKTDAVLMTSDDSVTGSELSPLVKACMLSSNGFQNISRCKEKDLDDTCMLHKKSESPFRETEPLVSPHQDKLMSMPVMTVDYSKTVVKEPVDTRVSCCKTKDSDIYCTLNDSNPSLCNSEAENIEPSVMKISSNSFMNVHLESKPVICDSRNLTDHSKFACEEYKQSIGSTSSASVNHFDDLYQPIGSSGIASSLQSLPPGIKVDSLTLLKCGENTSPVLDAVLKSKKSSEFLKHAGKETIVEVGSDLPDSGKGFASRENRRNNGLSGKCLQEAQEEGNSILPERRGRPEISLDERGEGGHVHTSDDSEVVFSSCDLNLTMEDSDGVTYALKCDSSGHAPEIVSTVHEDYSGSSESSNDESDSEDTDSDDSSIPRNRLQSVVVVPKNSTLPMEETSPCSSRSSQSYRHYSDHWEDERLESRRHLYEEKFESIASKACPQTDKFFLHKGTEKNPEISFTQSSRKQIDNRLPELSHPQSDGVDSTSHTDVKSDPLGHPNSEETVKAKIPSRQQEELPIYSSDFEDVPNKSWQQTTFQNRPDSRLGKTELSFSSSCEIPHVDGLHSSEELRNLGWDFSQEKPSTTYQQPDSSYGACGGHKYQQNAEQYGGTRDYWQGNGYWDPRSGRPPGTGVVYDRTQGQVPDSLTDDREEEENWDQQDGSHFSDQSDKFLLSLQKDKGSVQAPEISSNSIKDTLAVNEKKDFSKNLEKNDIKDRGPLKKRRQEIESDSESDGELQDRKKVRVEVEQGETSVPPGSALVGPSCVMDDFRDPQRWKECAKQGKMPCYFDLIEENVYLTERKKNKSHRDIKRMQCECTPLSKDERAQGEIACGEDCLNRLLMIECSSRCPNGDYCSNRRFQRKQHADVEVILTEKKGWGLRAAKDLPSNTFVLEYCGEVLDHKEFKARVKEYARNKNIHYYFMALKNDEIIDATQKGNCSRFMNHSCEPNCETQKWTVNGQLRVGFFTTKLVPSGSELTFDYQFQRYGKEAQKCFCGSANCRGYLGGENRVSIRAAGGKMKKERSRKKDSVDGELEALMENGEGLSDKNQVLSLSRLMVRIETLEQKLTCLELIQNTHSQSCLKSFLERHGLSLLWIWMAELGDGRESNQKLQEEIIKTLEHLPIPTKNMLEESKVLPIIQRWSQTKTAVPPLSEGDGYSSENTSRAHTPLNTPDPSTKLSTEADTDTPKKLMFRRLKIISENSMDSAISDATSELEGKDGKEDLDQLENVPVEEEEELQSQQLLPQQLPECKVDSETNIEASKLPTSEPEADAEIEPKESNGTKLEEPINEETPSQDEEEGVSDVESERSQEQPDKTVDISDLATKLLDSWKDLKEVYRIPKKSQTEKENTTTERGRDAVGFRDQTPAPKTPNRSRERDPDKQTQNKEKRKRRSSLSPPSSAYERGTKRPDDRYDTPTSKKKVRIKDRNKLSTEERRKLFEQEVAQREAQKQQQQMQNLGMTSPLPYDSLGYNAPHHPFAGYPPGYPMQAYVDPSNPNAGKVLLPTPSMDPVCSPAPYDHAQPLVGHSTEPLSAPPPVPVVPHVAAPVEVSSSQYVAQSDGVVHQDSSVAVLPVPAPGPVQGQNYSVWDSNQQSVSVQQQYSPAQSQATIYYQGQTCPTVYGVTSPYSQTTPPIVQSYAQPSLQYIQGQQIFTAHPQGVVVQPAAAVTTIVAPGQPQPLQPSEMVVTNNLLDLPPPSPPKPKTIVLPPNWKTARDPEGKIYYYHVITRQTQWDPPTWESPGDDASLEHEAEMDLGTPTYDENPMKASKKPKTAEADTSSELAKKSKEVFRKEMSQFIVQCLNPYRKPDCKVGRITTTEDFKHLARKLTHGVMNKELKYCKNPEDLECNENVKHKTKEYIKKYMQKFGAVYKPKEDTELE
# Sequence of USP 14 (h) (P54578 whole entry): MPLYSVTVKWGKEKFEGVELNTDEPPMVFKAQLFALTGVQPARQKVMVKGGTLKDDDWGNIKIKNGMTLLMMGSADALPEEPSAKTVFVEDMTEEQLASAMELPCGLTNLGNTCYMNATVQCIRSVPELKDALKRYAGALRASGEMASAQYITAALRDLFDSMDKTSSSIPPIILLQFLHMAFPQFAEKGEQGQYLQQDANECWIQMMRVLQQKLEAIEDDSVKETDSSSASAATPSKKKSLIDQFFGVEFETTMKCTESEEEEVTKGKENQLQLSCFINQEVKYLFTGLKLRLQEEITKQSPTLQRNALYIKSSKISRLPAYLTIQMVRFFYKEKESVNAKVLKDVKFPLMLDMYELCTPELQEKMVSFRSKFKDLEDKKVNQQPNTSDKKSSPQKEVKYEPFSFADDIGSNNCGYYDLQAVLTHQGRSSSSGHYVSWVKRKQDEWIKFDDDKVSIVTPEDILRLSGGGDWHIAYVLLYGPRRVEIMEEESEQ
Structure (SMILES),% Inhibition of Control Specific Binding (TRIM 33 (h) PHD domain; 10 μM),inhibition at 10 µM (TRIM 33 (h) PHD domain),inhibition at 10 µM (SETD2(h)),inhibition at 10 µM [1],inhibition at 10 µM (USP 14 (h)),inhibition at 10 µM (TAF1(1) (h) bromodomain),"EC50 (KG-1 leukemia cell line; KG-1, Leukemia)",GI50 (KG-1 leukemia cell line; [4]),"IC50 (KG-1 leukemia cell line; KG-1, Leukemia)",GI50 (KG-1 leukemia cell line; read-out: GI50),% Inhibition of Control Specific Binding (ATAD2A (h) bromodomain; 10 μM),inhibition at 10 µM (ATAD2A (h) bromodomain; 10 μM),"IC50 (ATAD2A (h) bromodomain; Table 9, inhibition/concentration-response curve, read-out: IC50)",inhibition at 10 µM [2],inhibition at 10 µM (CBX2 (h) chromodomain),inhibition at 10 µM [3],inhibition at 10 µM (H3K27 ac),IC50 (SETD2(h); read-out: Reference IC50)
"CC(C)=CCC[C@H](CO)[C@@H]1CC[C@@H](C)c2c1cc(C)c(O)c2O [Compound 1, 7,8,18-trihydroxyserrulat-14-ene]",good inhibitory activity,59%,-9%,26%,1%,48%,0.12 µM,0.11 µM,0.12 µM,0.11 µM,significant inhibitory activity,100%,3.1 µM,2%,17%,6%,-16%,–
"CC(C)=CCC[C@@H]1COc2c(C)cc(O)c3c2[C@H]1CC[C@H]3C [Compound 3, 5,18-epoxy-8-hydroxyserrulat-14-ene]",–,-2%,-11%,14%,-24%,17%,–,–,–,–,–,9%,–,7%,3%,0%,-11%,–
Nc1ncnc2c1ncn2[C@@H]1O[C@H](CSCC[C@H](N)C(=O)O)[C@@H](O)[C@H]1O [SAH],–,–,–,–,–,–,–,–,–,–,–,–,–,–,–,–,–,1.2 µM
"CC(C)=CCC[C@H](C)[C@@H]1CC[C@@H](C)c2c1cc(C)c(O)c2O [Compound 4, 7,8-dihydroxyserrulat-14-ene]",–,–,–,–,–,–,13.3 µM,13.1 µM,13.3 µM,–,–,–,–,–,–,–,–,–
"CC(C)=CCC[C@@H]1C(O)Oc2c(C)cc(O)c3c2[C@H]1CC[C@H]3C (some centres unmarked) [Compound 2, 5,18-epoxyserrulat-14-en-8,18-diol]",–,3%,-4%,28%,0%,17%,11.3 µM,11.9 µM,12 µM,–,–,16%,–,11%,6%,1%,-12%,–
